{"source": "patent US11730712B2", "about": "“Functionalized long-chain hydrocarbon mono- and di-carboxylic acids and derivatives thereof, and their use for the prevention or treatment of disease” (ESPERVITA THERAPEUTICS, INC., priority 2021, dated 2023)", "test_system": "liver fibrosis gene panel (770 genes)", "test": "Nanostring nCounter Fibrosis panel gene expression in liver of DEN-injected mice", "assay_type": "in vivo, mouse", "conditions": "vs vehicle", "experimental": "Nanostring Analysis. RNA was extracted from paired liver and tumor tissue from vehicle, Compound I-1 (100 mg/kg) and Compound I-32 (100 mg/kg) treated mice using an RNeasy kit (Qiagen, Calif., USA) as per manufacturer's protocol. All RNA samples passed the BioAnalyzer quality control test. The expression of target genes in liver and tumor were analyzed using the nCounter Fibrosis and Cancer Panel (NanoString Technologies, Inc., WA, USA), respectively according to manufacturer's protocol at the McMaster Genomics Facility. Technical and biological normalization against global geometric mean was performed in nSolver 4.0 software (NanoString Technologies). Technical normalization was performed in the nSolver software (version 4.0.70) by normalizing sample target raw counts to the geometric mean of positive control spike-ins. Biological normalization was performed by normalizing sample target raw counts to the geometric mean of selected housekeeping genes (Ppia, Nubp1, Nol7, Armh3, Rplp0, Cnot10, Pgk1, and Acad9). Pathway scores were calculated as the first principal component of the normalized expression values for all genes in each pathway and samples were compiled according to experimental groups to determine average pathway scores. Statistical significance was calculated between experimental groups using multiple t-tests and p-values were corrected for multiple comparisons using Benjamin-Hochberg false discovery rate.\nMolecular analysis. To identify the pathways modulated in the liver and tumor tissue, nanostring analysis of fibrosis and cancer, pathways, respectively were completed in an n=8 mice treated with vehicle or Compound I-32 or Compound I-1 at 100 mg/kg."}
{"compound": "CC(C)(CCCCc1ccc(CCCCC(C)(C)C(=O)O)cc1)C(=O)O", "note": "[Compound I-1, 6-[4-(5-carboxy-5-methylhexyl)-phenyl]-2,2-dimethylhexanoic acid]", "values": [{"measurement": "Axl Log2FC", "setting": "NM_009465, 100 mg/kg", "result": "−0.493"}, {"measurement": "Apoal Log2FC", "setting": "NM_009692, 100 mg/kg", "result": "−1.03"}, {"measurement": "Apob Log2FC", "setting": "NM_009693, 100 mg/kg", "result": "−0.289"}, {"measurement": "Atox1 Log2FC", "setting": "NM_009720, 100 mg/kg", "result": 0.157}, {"measurement": "Bcl2l1 Log2FC", "setting": "NM_009743, 100 mg/kg", "result": "−0.344"}, {"measurement": "Serping1 Log2FC", "setting": "NM_009776, 100 mg/kg", "result": "−0.631"}, {"measurement": "C3ar1 Log2FC", "setting": "NM_009779, 100 mg/kg", "result": "−0.618"}, {"measurement": "Calm1 Log2FC", "setting": "NM_009790, 100 mg/kg", "result": "−0.334"}, {"measurement": "Casp12 Log2FC", "setting": "NM_009808, 100 mg/kg", "result": "−0.633"}, {"measurement": "Casp3 Log2FC", "setting": "NM_009810, 100 mg/kg", "result": "−0.346"}, {"measurement": "Casp6 Log2FC", "setting": "NM_009811, 100 mg/kg", "result": 0.266}, {"measurement": "Casp8 Log2FC", "setting": "NM_009812, 100 mg/kg", "result": 0.195}, {"measurement": "Serpinh1 Log2FC", "setting": "NM_009825, 100 mg/kg", "result": "−0.486"}, {"measurement": "Cdk4 Log2FC", "setting": "NM_009870, 100 mg/kg", "result": 0.26}, {"measurement": "Cfh Log2FC", "setting": "NM_009888, 100 mg/kg", "result": "−1.41"}, {"measurement": "Cxcr4 Log2FC", "setting": "NM_009911, 100 mg/kg", "result": "−0.931"}, {"measurement": "Ccr2 Log2FC", "setting": "NM_009915, 100 mg/kg", "result": "−1.18"}, {"measurement": "Col3a1 Log2FC", "setting": "NM_009930, 100 mg/kg", "result": "−0.764"}, {"measurement": "Csnk2b Log2FC", "setting": "NM_009975, 100 mg/kg", "result": 0.114}, {"measurement": "Ctsd Log2FC", "setting": "NM_009983, 100 mg/kg", "result": 0.297}, {"measurement": "Cyp4a10/31/32 Log2FC", "setting": "NM_010011, 100 mg/kg", "result": 3.15}, {"measurement": "Fcer1g Log2FC", "setting": "NM_010185, 100 mg/kg", "result": "−0.406"}, {"measurement": "Fga Log2FC", "setting": "NM_010196, 100 mg/kg", "result": "−0.563"}, {"measurement": "Fn1 Log2FC", "setting": "NM_010233, 100 mg/kg", "result": "−0.666"}, {"measurement": "Got2 Log2FC", "setting": "NM_010325, 100 mg/kg", "result": 0.224}, {"measurement": "H2-Aa Log2FC", "setting": "NM_010378, 100 mg/kg", "result": "−0.78"}, {"measurement": "H2-D1 Log2FC", "setting": "NM_010380, 100 mg/kg", "result": "−0.266"}, {"measurement": "H2-Eb1 Log2FC", "setting": "NM_010382, 100 mg/kg", "result": "−0.772"}, {"measurement": "H2-Dma Log2FC", "setting": "NM_010386, 100 mg/kg", "result": "−0.391"}, {"measurement": "H2-DMB1 Log2FC", "setting": "NM_010387, 100 mg/kg", "result": "−0.938"}, {"measurement": "H2-T23 Log2FC", "setting": "NM_010398, 100 mg/kg", "result": "−0.403"}, {"measurement": "Hc Log2FC", "setting": "NM_010406, 100 mg/kg", "result": "−0.325"}, {"measurement": "Hif1a Log2FC", "setting": "NM_010431, 100 mg/kg", "result": 0.358}, {"measurement": "Hsp90aa1 Log2FC", "setting": "NM_010480, 100 mg/kg", "result": 0.693}, {"measurement": "Icam1 Log2FC", "setting": "NM_010493, 100 mg/kg", "result": "−0.371"}, {"measurement": "Ikbkb Log2FC", "setting": "NM_010546, 100 mg/kg", "result": "−0.395"}, {"measurement": "Ilk Log2FC", "setting": "NM_010562, 100 mg/kg", "result": "−0.143"}, {"measurement": "Itgb1 Log2FC", "setting": "NM_010578, 100 mg/kg", "result": 0.106}, {"measurement": "Fabp5 Log2FC", "setting": "NM_010634, 100 mg/kg", "result": 1.1}, {"measurement": "Psmb8 Log2FC", "setting": "NM_010724, 100 mg/kg", "result": "−1.07"}, {"measurement": "Loxl1 Log2FC", "setting": "NM_010729, 100 mg/kg", "result": "−1.1"}, {"measurement": "Lyn Log2FC", "setting": "NM_010747, 100 mg/kg", "result": "−0.32"}, {"measurement": "Smad2 Log2FC", "setting": "NM_010754, 100 mg/kg", "result": 0.246}, {"measurement": "Myd88 Log2FC", "setting": "NM_010851, 100 mg/kg", "result": 0.261}, {"measurement": "Nid1 Log2FC", "setting": "NM_010917, 100 mg/kg", "result": "−0.733"}, {"measurement": "P4hb Log2FC", "setting": "NM_011032, 100 mg/kg", "result": "−0.842"}, {"measurement": "Pek1 Log2FC", "setting": "NM_011044, 100 mg/kg", "result": "−1.88"}, {"measurement": "Prkacb Log2FC", "setting": "NM_011100, 100 mg/kg", "result": "−0.158"}, {"measurement": "Pltp Log2FC", "setting": "NM_011125, 100 mg/kg", "result": 1.39}, {"measurement": "Ppard Log2FC", "setting": "NM_011145, 100 mg/kg", "result": "−0.466"}, {"measurement": "Pparg Log2FC", "setting": "NM_011146, 100 mg/kg", "result": "−0.615"}, {"measurement": "Prkdc Log2FC", "setting": "NM_011159, 100 mg/kg", "result": "−0.568"}, {"measurement": "Pros1 Log2FC", "setting": "NM_011173, 100 mg/kg", "result": "−0.22"}, {"measurement": "Lgmn Log2FC", "setting": "NM_011175, 100 mg/kg", "result": "−0.499"}, {"measurement": "Psmb7 Log2FC", "setting": "NM_011187, 100 mg/kg", "result": 0.204}, {"measurement": "Ptprc Log2FC", "setting": "NM_011210, 100 mg/kg", "result": "−0.49"}, {"measurement": "Rein Log2FC", "setting": "NM_011261, 100 mg/kg", "result": "−0.45"}, {"measurement": "S100a4 Log2FC", "setting": "NM_011311, 100 mg/kg", "result": "−1.28"}, {"measurement": "Serpinf1 Log2FC", "setting": "NM_011340, 100 mg/kg", "result": "−0.18"}, {"measurement": "Sod1 Log2FC", "setting": "NM_011434, 100 mg/kg", "result": 0.352}, {"measurement": "Srebf1 Log2FC", "setting": "NM_011480, 100 mg/kg", "result": "−0.608"}, {"measurement": "Skp1a Log2FC", "setting": "NM_011543, 100 mg/kg", "result": 0.227}, {"measurement": "Thbs2 Log2FC", "setting": "NM_011581, 100 mg/kg", "result": "−0.831"}, {"measurement": "Timp2 Log2FC", "setting": "NM_011594, 100 mg/kg", "result": "−0.609"}, {"measurement": "Tjp2 Log2FC", "setting": "NM_011597, 100 mg/kg", "result": 0.204}]}
